Measured values reported in the NIST ThermoML archive (doi:10.1016/j.tca.2006.04.016).
± gives the expanded uncertainty stated by the source.

Test: xn = mol fraction of the nth substance listed
Settings: 101 kPa, Liquid, Vibrating tube method, x1 = 1

O [water] + CN(C)CCCN
mass density (283.15 K): 999.7 ± 0.51 kg/m3
mass density (323.15 K): 988.03 ± 0.5 kg/m3
mass density (328.15 K): 985.69 ± 0.5 kg/m3
mass density (333.15 K): 983.191 ± 0.5 kg/m3
mass density (338.15 K): 980.55 ± 0.5 kg/m3
mass density (343.15 K): 977.76 ± 0.5 kg/m3
mass density (348.15 K): 974.84 ± 0.5 kg/m3
mass density (353.15 K): 971.79 ± 0.49 kg/m3
